Reference: the Kinase Knowledgebase extract (Sharma et al. 2016)

The compounds below were run against EGFR (UniProt P00533).
EGFR, sequence (P00533 whole entry, looked up): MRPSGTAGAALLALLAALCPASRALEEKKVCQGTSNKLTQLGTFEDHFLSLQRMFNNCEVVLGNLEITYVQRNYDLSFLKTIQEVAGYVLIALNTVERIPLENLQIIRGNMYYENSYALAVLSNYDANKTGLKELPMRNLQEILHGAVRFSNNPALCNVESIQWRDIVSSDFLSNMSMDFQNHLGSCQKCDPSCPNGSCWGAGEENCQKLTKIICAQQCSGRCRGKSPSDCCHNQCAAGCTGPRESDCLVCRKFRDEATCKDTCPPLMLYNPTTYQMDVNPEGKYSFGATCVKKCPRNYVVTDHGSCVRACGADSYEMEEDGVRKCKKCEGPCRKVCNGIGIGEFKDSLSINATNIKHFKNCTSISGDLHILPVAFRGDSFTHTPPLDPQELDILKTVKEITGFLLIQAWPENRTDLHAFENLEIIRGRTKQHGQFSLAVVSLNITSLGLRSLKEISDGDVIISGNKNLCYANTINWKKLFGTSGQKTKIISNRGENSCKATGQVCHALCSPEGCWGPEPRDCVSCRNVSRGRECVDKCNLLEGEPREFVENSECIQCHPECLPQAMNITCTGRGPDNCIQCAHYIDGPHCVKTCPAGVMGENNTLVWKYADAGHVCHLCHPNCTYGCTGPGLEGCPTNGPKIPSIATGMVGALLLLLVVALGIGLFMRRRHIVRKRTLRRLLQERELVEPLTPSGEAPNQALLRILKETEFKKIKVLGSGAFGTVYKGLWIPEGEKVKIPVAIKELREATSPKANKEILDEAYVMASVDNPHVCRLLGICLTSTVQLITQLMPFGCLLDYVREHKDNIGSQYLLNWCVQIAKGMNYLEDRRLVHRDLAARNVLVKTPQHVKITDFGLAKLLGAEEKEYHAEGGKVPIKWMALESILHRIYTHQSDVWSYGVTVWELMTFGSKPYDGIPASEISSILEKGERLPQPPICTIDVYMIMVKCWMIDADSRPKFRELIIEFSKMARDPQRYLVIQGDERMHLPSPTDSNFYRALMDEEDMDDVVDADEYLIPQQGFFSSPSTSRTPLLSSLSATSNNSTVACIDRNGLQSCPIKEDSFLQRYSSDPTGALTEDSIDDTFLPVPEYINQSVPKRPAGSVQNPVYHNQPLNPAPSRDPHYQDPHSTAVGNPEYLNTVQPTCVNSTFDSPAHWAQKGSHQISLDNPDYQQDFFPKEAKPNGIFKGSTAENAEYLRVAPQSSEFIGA

Row | SMILES | IC50
1 | CCCc1c(C(=O)OCC)cn2ncnc(Nc3ccc4c(cnn4Cc4ccccc4)c3)c12 | 0.003 to 25 µM
2 | COC(=O)c1cn2ncnc(Nc3ccc(OC)nc3)c2c1C | 0.003 to 25 µM
3 | CCOC(=O)c1cn2ncnc(Nc3ccc4c(cnn4Cc4ccccc4)c3)c2c1C(C)C | 0.003 to 25 µM
4 | COC(=O)c1cn2ncnc(Nc3ccc4c(c3)C(=O)NC4=O)c2c1C | 0.003 to 25 µM
5 | COC(=O)c1cn2ncnc(Nc3ccc(F)c(Cl)c3)c2c1CCCOCc1ccccc1 | 0.003 to 25 µM
6 | COC(=O)c1cn2ncnc(Nc3ccc(Oc4ccccc4)cc3)c2c1C | 0.003 to 25 µM
7 | COC(=O)c1cn2ncnc(Nc3ccc4c(c3)NCC4)c2c1C | 0.003 to 25 µM
8 | CNS(=O)(=O)c1ccc2c(c1)C(c1ncnn3cc(C(=O)OC)c(C)c13)C(=O)N2 (stereo unspecified) | 0.003 to 25 µM
9 | COC(=O)c1cn2ncnc(Nc3cccc(O)c3C)c2c1C | 0.003 to 25 µM
10 | CCOC(=O)c1cn2ncnc(C3C(=O)Nc4ccccc43)c2c1CC (stereo unspecified) | 0.003 to 25 µM
11 | COC(=O)c1cc2c(Nc3ccc4c(cnn4Cc4ccccc4)c3)ncnn2c1 | 0.003 to 25 µM
12 | Cc1ccc(Nc2ncnn3cc(N)c(C)c23)cc1O | 0.003 to 25 µM
13 | COCCCNC(=O)c1cn2ncnc(Nc3ccc(C)c(O)c3)c2c1C | 0.003 to 25 µM
14 | CCOC(=O)c1cn2ncnc(N[C@H]3CC[C@H](O)CC3)c2c1CC | 0.003 to 25 µM
15 | CCOC(=O)c1cn2ncnc(Nc3ccc4cn[nH]c4c3)c2c1CC | 0.003 to 25 µM

Second part, the compound after the results:

Row | IC50 | SMILES
16 | 0.003 to 25 µM | COC(=O)c1cn2ncnc(Nc3ccc4c(=O)[nH][nH]c(=O)c4c3)c2c1C
17 | 0.003 to 25 µM | COC(=O)c1cn2ncnc(Nc3ccc(C)c(C)c3)c2c1C
18 | 0.003 to 25 µM | COC(=O)c1cn2ncnc(Oc3cccc(O)c3)c2c1C
19 | 0.003 to 25 µM | COC(=O)c1cn2ncnc(Nc3ccc(Br)c(C)c3)c2c1C
20 | 0.003 to 25 µM | COC(=O)c1cn2ncnc(Nc3ccc(C)c(S(N)(=O)=O)c3)c2c1C
21 | 0.003 to 25 µM | COC(=O)c1cn2ncnc(N(C)c3ccc(C)c(O)c3)c2c1C
22 | 0.003 to 25 µM | COC(=O)c1cn2ncnc(Nc3ccc4cc[nH]c4c3)c2c1C
23 | 0.003 to 25 µM | Cc1ccc(Nc2ncnn3cc(C)c(C)c23)cc1O
24 | 0.003 to 25 µM | COC(=O)c1cn2ncnc(Cl)c2c1C
25 | 0.003 to 25 µM | COC(=O)c1cn2ncnc(Nc3cccc(CO)c3)c2c1C
26 | 0.003 to 25 µM | CCCc1c(C(=O)NCCCN2CCCC2)cn2ncnc(Nc3ccc(C)c(O)c3)c12
